Test results as given in patent US20040076974A1, “Liver necrosis predictive genes” (priority 2002, published 2004).
Where “and” joins values, the source holds several entries; their conditions need not be identical. Equal entries are not always repeated. Where two headings read alike, the source gives them in different places.

How the values were obtained:
[1] = system: toxicologically relevant rat genes (rat CT array); settings: 24 h
[2] = system: Sprague Dawley rats; settings: for Liver Necrosis / Score (histopathology liver necrosis severity score): rat, intraperitoneal; for Liver Necrosis: 72 hours after treatment; for Score (histopathology liver necrosis severity score): 72 hours, 1 = not remarkable, 2 and higher increasing severity
Summary of the method: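 Toxicity calls (necrosis present or absent at 72 h) and histopathology scores were correlated with tissue gene expression from Crl:CD Sprague Dawley rats. Animals, usually 3 treated with compound by i.p. route and 3 given vehicle, were killed at 6, 24 or 72 h and tissues frozen immediately in liquid nitrogen.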

**Q.** `ClC(Cl)(Cl)Cl` [carbon tetrachloride] was tested. Which “14-3-3 zeta expression (treatment/control)” value ([1]; dose 250, listed as CCL4) did it give?
**A.** 1.66 and 1.924 and 1.756

**Q.** What about the “17-beta hydroxysteroid dehydrogenase, type 2 expression (treatment/control)” value ([1]; dose 250, listed as CCL4) of the same compound?
**A.** 1.054 and 0.5508 and 0.756

**Q.** What about the “Cathepsin L, sequence 2 expression (treatment/control)” value ([1]; dose 250, listed as CCL4) of the same compound?
**A.** 1.932 and 2.846 and 1.646

**Q.** And the “Dynamin-1 (D100) expression (treatment/control)” value ([1]; dose 250, listed as CCL4)?
**A.** 0.7967 and 0.581 and 0.7391

**Q.** What about the “Gadd45 expression (treatment/control)” value ([1]; dose 250, listed as CCL4) of the same compound?
**A.** 2.248 and 2.519 and 1.891

**Q.** And the “Gamma-actin, cytoplasmic expression (treatment/control)” value ([1]; dose 250, listed as CCL4)?
**A.** 1.21 and 1.729 and 1.683

**Q.** And the “Insulin-like growth factor binding protein 1 expression (treatment/control)” value ([1]; dose 250, listed as CCL4)?
**A.** 1.423 and 1.69 and 1.605

**Q.** What about the “L-gulono-gamma-lactone oxidase expression (treatment/control)” value ([1]; dose 250, listed as CCL4) of the same compound?
**A.** 0.5457 and 0.345 and 0.5416

**Q.** And the “Matrin F/G expression (treatment/control)” value ([1]; dose 250, listed as CCL4)?
**A.** 0.8257 and 0.6948 and 0.7947

**Q.** And the “Ornithine decarboxylase expression (treatment/control)” value ([1]; dose 250, listed as CCL4)?
**A.** 1.229 and 1.514 and 1.453

**Q.** And the “PAR interacting protein expression (treatment/control)” value ([1]; dose 250, listed as CCL4)?
**A.** 1.251 and 1.611 and 1.178

**Q.** And the “Phase-1 RCT-33 expression (treatment/control)” value ([1]; dose 250, listed as CCL4)?
**A.** 0.7

**Q.** What about the “Phase-1 RCT-36 expression (treatment/control)” value ([1]; dose 250, listed as CCL4) of the same compound?
**A.** 0.9183 and 0.9601

**Q.** And the “Phase-1 RCT-38 expression (treatment/control)” value ([1]; dose 250, listed as CCL4)?
**A.** 0.6811 and 0.8069

**Q.** And the “Phase-1 RCT-39 expression (treatment/control)” value ([1]; dose 250, listed as CCL4)?
**A.** 1.553

**Q.** And the “Phase-1 RCT-40 expression (treatment/control)” value ([1]; dose 250, listed as CCL4)?
**A.** 0.8329

**Q.** What about the “Phase-1 RCT-48 expression (treatment/control)” value ([1]; dose 250, listed as CCL4) of the same compound?
**A.** 0.8905

**Q.** What about the “Phase-1 RCT-49 expression (treatment/control)” value ([1]; dose 250, listed as CCL4) of the same compound?
**A.** 1.595 and 1.935 and 1.969

**Q.** And the “Phase-1 RCT-50 expression (treatment/control)” value ([1]; dose 250, listed as CCL4)?
**A.** 1.199 and 1.292

**Q.** What about the “Phase-1 RCT-68 expression (treatment/control)” value ([1]; dose 250, listed as CCL4) of the same compound?
**A.** 1.615

**Q.** And the “Phase-1 RCT-78 expression (treatment/control)” value ([1]; dose 250, listed as CCL4)?
**A.** 0.6214

**Q.** And the “Phase-1 RCT-83 expression (treatment/control)” value ([1]; dose 250, listed as CCL4)?
**A.** 0.8265 and 0.5965 and 0.5296

**Q.** What about the “Phase-1 RCT-89 expression (treatment/control)” value ([1]; dose 250, listed as CCL4) of the same compound?
**A.** 0.7738 and 0.5787 and 0.6881

**Q.** And the “Phase-1 RCT-92 expression (treatment/control)” value ([1]; dose 250, listed as CCL4)?
**A.** 0.6412 and 0.598 and 0.6063

**Q.** And the “Phase-1 RCT-128 expression (treatment/control)” value ([1]; dose 250, listed as CCL4)?
**A.** 0.7659 and 0.5352 and 0.6882

**Q.** What about the “Phase-1 RCT-144 expression (treatment/control)” value ([1]; dose 250, listed as CCL4) of the same compound?
**A.** 1.636 and 2.462 and 1.54

**Q.** What about the “Phase-1 RCT-145 expression (treatment/control)” value ([1]; dose 250, listed as CCL4) of the same compound?
**A.** 1.894

**Q.** And the “Phase-1 RCT-180 expression (treatment/control)” value ([1]; dose 250, listed as CCL4)?
**A.** 1.103

**Q.** And the “Phase-1 RCT-182 expression (treatment/control)” value ([1]; dose 250, listed as CCL4)?
**A.** 0.5663 and 0.6692

**Q.** What about the “Phase-1 RCT-213 expression (treatment/control)” value ([1]; dose 250, listed as CCL4) of the same compound?
**A.** 1.658 and 1.455

**Q.** And the “Phase-1 RCT-256 expression (treatment/control)” value ([1]; dose 250, listed as CCL4)?
**A.** 0.6795 and 0.8008

**Q.** What about the “Phase-1 RCT-264 expression (treatment/control)” value ([1]; dose 250, listed as CCL4) of the same compound?
**A.** 0.5556 and 0.3693 and 0.5559

**Q.** What about the “Phase-1 RCT-288 expression (treatment/control)” value ([1]; dose 250, listed as CCL4) of the same compound?
**A.** 0.6979 and 0.5773 and 0.6386

**Q.** What about the “Phase-1 RCT-291 expression (treatment/control)” value ([1]; dose 250, listed as CCL4) of the same compound?
**A.** 0.7629 and 0.7701

**Q.** What about the “Phase-1 RCT-295 expression (treatment/control)” value ([1]; dose 250, listed as CCL4) of the same compound?
**A.** 1.942 and 1.579

**Q.** And the “Ribosomal protein S17 expression (treatment/control)” value ([1]; dose 250, listed as CCL4)?
**A.** 1.826 and 2.664 and 2.129

**Q.** And the “Senescence marker protein-30 expression (treatment/control)” value ([1]; dose 250, listed as CCL4)?
**A.** 0.7864 and 0.5048 and 0.8299

**Q.** What about the “Zinc finger protein expression (treatment/control)” value ([1]; dose 250, listed as CCL4) of the same compound?
**A.** 1.078 and 1.318 and 1.451

**Q.** What about the “14-3-3 zeta expression (treatment/control)” value ([1]; dose 1000) of the same compound?
**A.** 2.165

**Q.** What about the “17-beta hydroxysteroid dehydrogenase, type 2 expression (treatment/control)” value ([1]; dose 1000) of the same compound?
**A.** 0.5477

**Q.** What about the “Cathepsin L, sequence 2 expression (treatment/control)” value ([1]; dose 1000) of the same compound?
**A.** 4.767

**Q.** And the “Dynamin-1 (D100) expression (treatment/control)” value ([1]; dose 1000)?
**A.** 0.4373

**Q.** What about the “Gadd45 expression (treatment/control)” value ([1]; dose 1000) of the same compound?
**A.** 2.03

**Q.** And the “Gamma-actin, cytoplasmic expression (treatment/control)” value ([1]; dose 1000)?
**A.** 2.857

**Q.** What about the “Insulin-like growth factor binding protein 1 expression (treatment/control)” value ([1]; dose 1000) of the same compound?
**A.** 2.908

**Q.** And the “L-gulono-gamma-lactone oxidase expression (treatment/control)” value ([1]; dose 1000)?
**A.** 0.2874

**Q.** What about the “Matrin F/G expression (treatment/control)” value ([1]; dose 1000) of the same compound?
**A.** 0.5748

**Q.** What about the “Ornithine decarboxylase expression (treatment/control)” value ([1]; dose 1000) of the same compound?
**A.** 2.004

**Q.** And the “PAR interacting protein expression (treatment/control)” value ([1]; dose 1000)?
**A.** 1.736

**Q.** What about the “Phase-1 RCT-33 expression (treatment/control)” value ([1]; dose 1000) of the same compound?
**A.** 0.4824

**Q.** And the “Phase-1 RCT-36 expression (treatment/control)” value ([1]; dose 1000)?
**A.** 0.6382

**Q.** What about the “Phase-1 RCT-38 expression (treatment/control)” value ([1]; dose 1000) of the same compound?
**A.** 0.5871

**Q.** What about the “Phase-1 RCT-39 expression (treatment/control)” value ([1]; dose 1000) of the same compound?
**A.** 1.821

**Q.** And the “Phase-1 RCT-40 expression (treatment/control)” value ([1]; dose 1000)?
**A.** 0.7596

**Q.** What about the “Phase-1 RCT-48 expression (treatment/control)” value ([1]; dose 1000) of the same compound?
**A.** 0.9803

**Q.** And the “Phase-1 RCT-49 expression (treatment/control)” value ([1]; dose 1000)?
**A.** 2.488

**Q.** And the “Phase-1 RCT-50 expression (treatment/control)” value ([1]; dose 1000)?
**A.** 1.792

**Q.** What about the “Phase-1 RCT-68 expression (treatment/control)” value ([1]; dose 1000) of the same compound?
**A.** 1.656

**Q.** And the “Phase-1 RCT-78 expression (treatment/control)” value ([1]; dose 1000)?
**A.** 0.5578

**Q.** And the “Phase-1 RCT-83 expression (treatment/control)” value ([1]; dose 1000)?
**A.** 0.3247

**Q.** And the “Phase-1 RCT-89 expression (treatment/control)” value ([1]; dose 1000)?
**A.** 0.4606

**Q.** And the “Phase-1 RCT-92 expression (treatment/control)” value ([1]; dose 1000)?
**A.** 0.3009

**Q.** What about the “Phase-1 RCT-128 expression (treatment/control)” value ([1]; dose 1000) of the same compound?
**A.** 0.3095

**Q.** And the “Phase-1 RCT-144 expression (treatment/control)” value ([1]; dose 1000)?
**A.** 2.627

**Q.** What about the “Phase-1 RCT-145 expression (treatment/control)” value ([1]; dose 1000) of the same compound?
**A.** 1.753

**Q.** What about the “Phase-1 RCT-180 expression (treatment/control)” value ([1]; dose 1000) of the same compound?
**A.** 1.291

**Q.** And the “Phase-1 RCT-182 expression (treatment/control)” value ([1]; dose 1000)?
**A.** 0.3598

**Q.** And the “Phase-1 RCT-207 expression (treatment/control)” value ([1]; dose 1000)?
**A.** 2.086

**Q.** And the “Phase-1 RCT-213 expression (treatment/control)” value ([1]; dose 1000)?
**A.** 1.988

**Q.** What about the “Phase-1 RCT-256 expression (treatment/control)” value ([1]; dose 1000) of the same compound?
**A.** 0.6382

**Q.** What about the “Phase-1 RCT-264 expression (treatment/control)” value ([1]; dose 1000) of the same compound?
**A.** 0.2087

**Q.** And the “Phase-1 RCT-288 expression (treatment/control)” value ([1]; dose 1000)?
**A.** 0.4221

**Q.** What about the “Phase-1 RCT-291 expression (treatment/control)” value ([1]; dose 1000) of the same compound?
**A.** 0.5561

**Q.** What about the “Phase-1 RCT-295 expression (treatment/control)” value ([1]; dose 1000) of the same compound?
**A.** 2.11

**Q.** What about the “Phase-1 RCT-296 expression (treatment/control)” value ([1]; dose 1000) of the same compound?
**A.** 0.2278

**Q.** And the “Ribosomal protein S17 expression (treatment/control)” value ([1]; dose 1000)?
**A.** 3.461

**Q.** And the “Senescence marker protein-30 expression (treatment/control)” value ([1]; dose 1000)?
**A.** 0.2057

**Q.** What about the “Zinc finger protein expression (treatment/control)” value ([1]; dose 1000) of the same compound?
**A.** 1.697

**Q.** And the “Liver Toxicity Necrosis Classification” value ([2]; 72 h, dose 250)?
**A.** yes

**Q.** What about the “Liver Toxicity Necrosis Classification” value ([2]; 72 h, dose 1000) of the same compound?
**A.** yes

**Q.** What about the “Liver Toxicity Necrosis Classification” value ([2]; compound-dose group at 72 h, CCL4 1000, DMN 20, LPS 8) of the same compound?
**A.** yes

**Q.** What about the “Liver Toxicity Necrosis Classification” value ([2]; compound-dose group at 72 h, dose 250) of the same compound?
**A.** yes

**Q.** And the “Liver Toxicity Necrosis Classification” value ([2]; compound-dose group at 72 h, dose 1000)?
**A.** yes

**Q.** And the “Liver Toxicity Necrosis Classification” value ([2]; compound-dosegroup at 72 h, dose 250)?
**A.** yes

**Q.** What about the “Liver Toxicity Necrosis Classification” value ([2]; compound-dosegroup at 72 h, dose 1000) of the same compound?
**A.** yes

**Q.** And the “Liver Necrosis” value ([2]; dose 0.25 ml/kg)?
**A.** Yes

**Q.** What about the “Score (histopathology liver necrosis severity score)” value ([2]; dose 0.25 ml/kg) of the same compound?
**A.** 3

**Q.** And the “Liver Necrosis” value ([2]; dose 1 ml/kg)?
**A.** Yes

**Q.** What about the “Score (histopathology liver necrosis severity score)” value ([2]; dose 1 ml/kg) of the same compound?
**A.** 6
